Source: patent EP1247803A2, “Indolinone compounds suitable for modulation of protein kinases” (Sugen, Inc., priority 1996, dated 1998)

Assays:
PDGF-R = PDGF-R (Homo sapiens, UniProt P09619); test: PDGF-R ELISA; format: cell-based
From the text: A PDGF-R ELISA is described in International Patent Publication No. WO 96/40116, published December 19, 1996 by Tang et al.

EGFR = target: T1, EGFR (Homo sapiens, UniProt P00533); test: EGFR ELISA assay (in vitro kinase activity, EGFR captured from A431 cell lysate); format: biochemical; set-up: concentration or dose not given beside the values
T1 construct: Add 7 ug A431 cell lysate per well (EGFR source); endogenous in cells; host or cells: A431
Summary of the method: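 EGFR from A431 lysate was captured on plates coated with anti-EGFR antibody. Compounds were added 30 min before a 5 min phosphorylation with 3 µM ATP/5 mM MnCl2, which was stopped with 20 mM EDTA. Phosphotyrosine was detected with rabbit anti-phosphotyrosine, then a peroxidase-conjugated secondary and ABTS/H2O2, read at 410 nm.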

Sequence of PDGF-R (P09619 33-1106, species assumed): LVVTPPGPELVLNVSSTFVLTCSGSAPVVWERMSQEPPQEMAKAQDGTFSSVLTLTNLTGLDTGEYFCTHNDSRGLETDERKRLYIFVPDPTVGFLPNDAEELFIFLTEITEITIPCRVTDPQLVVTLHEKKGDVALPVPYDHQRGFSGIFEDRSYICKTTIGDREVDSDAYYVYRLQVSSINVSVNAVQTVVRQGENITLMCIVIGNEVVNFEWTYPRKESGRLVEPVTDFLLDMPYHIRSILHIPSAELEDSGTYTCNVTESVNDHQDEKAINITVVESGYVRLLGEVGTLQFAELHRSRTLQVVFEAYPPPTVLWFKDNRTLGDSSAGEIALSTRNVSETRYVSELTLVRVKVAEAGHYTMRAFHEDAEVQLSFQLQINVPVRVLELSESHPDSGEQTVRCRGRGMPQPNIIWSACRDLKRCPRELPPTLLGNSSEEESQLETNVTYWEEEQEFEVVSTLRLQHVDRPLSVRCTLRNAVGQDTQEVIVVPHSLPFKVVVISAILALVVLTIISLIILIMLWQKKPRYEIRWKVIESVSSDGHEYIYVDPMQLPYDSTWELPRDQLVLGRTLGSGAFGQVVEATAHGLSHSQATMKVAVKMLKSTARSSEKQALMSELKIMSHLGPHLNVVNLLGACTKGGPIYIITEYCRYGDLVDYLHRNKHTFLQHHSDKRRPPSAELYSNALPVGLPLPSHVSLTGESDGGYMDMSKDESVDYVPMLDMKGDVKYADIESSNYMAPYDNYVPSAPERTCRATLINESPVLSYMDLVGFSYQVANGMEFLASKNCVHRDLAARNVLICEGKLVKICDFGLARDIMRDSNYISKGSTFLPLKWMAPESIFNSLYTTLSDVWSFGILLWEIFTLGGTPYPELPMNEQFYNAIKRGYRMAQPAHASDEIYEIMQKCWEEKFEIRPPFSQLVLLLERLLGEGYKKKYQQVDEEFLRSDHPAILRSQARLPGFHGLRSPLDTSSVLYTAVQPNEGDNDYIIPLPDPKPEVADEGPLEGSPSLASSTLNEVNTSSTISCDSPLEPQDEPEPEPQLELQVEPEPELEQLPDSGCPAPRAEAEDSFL
T1 sequence (P00533 25-1210): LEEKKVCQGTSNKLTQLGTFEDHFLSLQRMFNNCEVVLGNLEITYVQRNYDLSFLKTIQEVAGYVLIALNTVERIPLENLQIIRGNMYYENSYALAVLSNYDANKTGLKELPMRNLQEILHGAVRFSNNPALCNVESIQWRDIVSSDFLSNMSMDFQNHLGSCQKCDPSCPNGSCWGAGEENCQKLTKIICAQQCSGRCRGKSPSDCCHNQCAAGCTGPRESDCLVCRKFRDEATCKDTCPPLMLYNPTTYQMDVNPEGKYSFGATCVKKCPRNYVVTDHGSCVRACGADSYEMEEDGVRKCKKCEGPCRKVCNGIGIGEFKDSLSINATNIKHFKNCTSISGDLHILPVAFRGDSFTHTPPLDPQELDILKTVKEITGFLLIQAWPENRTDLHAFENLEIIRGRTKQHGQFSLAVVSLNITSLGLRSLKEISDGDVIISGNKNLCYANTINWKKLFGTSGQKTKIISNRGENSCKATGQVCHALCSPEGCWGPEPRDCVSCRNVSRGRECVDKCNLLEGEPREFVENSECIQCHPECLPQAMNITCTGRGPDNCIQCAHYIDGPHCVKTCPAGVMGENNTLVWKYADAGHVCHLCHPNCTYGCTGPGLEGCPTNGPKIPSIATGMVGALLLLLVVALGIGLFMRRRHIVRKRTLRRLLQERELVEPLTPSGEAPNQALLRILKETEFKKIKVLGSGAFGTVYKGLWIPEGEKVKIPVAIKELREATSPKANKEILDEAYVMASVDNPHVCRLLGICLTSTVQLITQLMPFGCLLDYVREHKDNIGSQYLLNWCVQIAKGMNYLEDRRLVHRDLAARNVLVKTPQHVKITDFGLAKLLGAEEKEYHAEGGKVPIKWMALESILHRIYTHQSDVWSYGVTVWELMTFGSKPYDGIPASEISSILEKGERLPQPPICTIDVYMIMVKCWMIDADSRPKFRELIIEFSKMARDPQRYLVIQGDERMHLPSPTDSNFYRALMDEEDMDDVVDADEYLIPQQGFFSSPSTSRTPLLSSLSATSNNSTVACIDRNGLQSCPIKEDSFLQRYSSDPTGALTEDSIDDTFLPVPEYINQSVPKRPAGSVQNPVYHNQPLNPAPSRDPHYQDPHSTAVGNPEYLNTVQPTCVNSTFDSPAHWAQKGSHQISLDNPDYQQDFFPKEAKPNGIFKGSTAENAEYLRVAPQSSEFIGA

| Compound | PDGF Kinase %Inhibition (PDGF-R) [%] | Biochem EGFR %Inhibition (EGFR) [%] |
| --- | --- | --- |
| COc1cccc(C=C2C(=O)Nc3c(Br)cc(Br)cc32)c1O [10723/A03] | 11.7 | 38.5 |
| O=C1Nc2ccc(S(=O)(=O)Nc3ccc(C(F)(F)F)cc3)cc2C1=Cc1ccc(Br)cc1 [10717/E08] | – | 28.2 |
| CNS(=O)(=O)c1ccc2c(c1)C(=Cc1cc(C(C)(C)C)cc(C(C)(C)C)c1O)C(=O)N2 [10723/D11] | 24.9 | -6.2 |
| COc1ccc(C=C2C(=O)Nc3ccc(CCCl)cc32)c(O)c1 [10723/G09] | -2.9 | -32.6 |
| O=C1Nc2ccc(CCCl)cc2C1=Cc1ccc(F)cc1F [10722/G06] | -6.0 | -5.2 |
| Cc1cc(C=C2C(=O)Nc3ccc(CCCl)cc32)ccc1O [10723/G06] | -0.8 | -26.7 |
| Cc1cc(C=C2C(=O)Nc3ccc(I)cc32)ccc1O [10723/B06] | 58.8 | 11.9 |
| CNS(=O)(=O)c1ccc2c(c1)C(=Cc1ccc(O)c(C)c1)C(=O)N2 [10723/D06] | 6.2 | -7.4 |
| COc1ccc(C=C2C(=O)Nc3ccc(S(=O)(=O)Nc4ccc(C(F)(F)F)cc4)cc32)c(O)c1 [10723/E09] | 22.1 | 29.1 |
| COc1ccc(C=C2C(=O)Nc3ccc(Br)c(C)c32)c(O)c1 [10723/C09] | 62.3 | 62.7 |
| Cc1c(Br)ccc2c1C(=Cc1cc(C(C)(C)C)cc(C(C)(C)C)c1O)C(=O)N2 [10723/C11] | 8.9 | -1.1 |
| O=C1Nc2ccc(S(=O)(=O)Nc3ccc(C(F)(F)F)cc3)cc2C1=Cc1ccc(O)cc1O [10723/E08] | 26.3 | 52.6 |
| CNS(=O)(=O)c1ccc2c(c1)C(=Cc1ccc(O)c(O)c1O)C(=O)N2 [10723/D02] | 22.1 | 63.2 |
| Cc1c(Br)ccc2c1C(=Cc1ccccc1Br)C(=O)N2 [10723/C07] | 27.6 | -4.0 |
| Cc1c(Br)ccc2c1C(=Cc1ccc(O)cc1O)C(=O)N2 [10723/C08] | 29.0 | 45.0 |
| COc1cccc(C=C2C(=O)Nc3ccc(S(=O)(=O)Nc4ccc(C(F)(F)F)cc4)cc32)c1O [10723/E03] | 47.1 | 8.3 |
| CC(C)(C)c1cc(C=C2C(=O)Nc3ccc(CCCl)cc32)cc([N+](=O)[O-])c1O [10722/G02] | 14.6 | 27.3 |
| O=C1Nc2ccc(S(=O)(=O)Nc3ccc(C(F)(F)F)cc3)cc2C1=Cc1ccc(O)c(O)c1O [10723/E02] | 46.4 | 91.0 |
| Cc1c(Br)ccc2c1C(=Cc1cccc(Br)c1)C(=O)N2 [10723/C10] | 25.6 | -7.2 |
| COc1cccc(C=C2C(=O)Nc3ccc(CCCl)cc32)c1O [10723/G03] | 6.2 | 18.5 |

| Compound | PDGF Kinase %Inhibition (PDGF-R) [%] | Biochem EGFR %Inhibition (EGFR) [%] |
| --- | --- | --- |
| CC(=O)Oc1ccc(C=C2C(=O)Nc3c(Br)cc(Br)cc32)cc1OC(C)=O [10723/A05] | 17.9 | 26.4 |
| O=C1Nc2ccc(S(=O)(=O)Nc3ccc(C(F)(F)F)cc3)cc2C1=Cc1cccc(Br)c1 [10723/E10] | 44.3 | -7.9 |
| CCOc1ccccc1C=C1C(=O)Nc2ccc(S(=O)(=O)Nc3ccc(C(F)(F)F)cc3)cc21 [10717/E02] | – | 17.2 |
| O=C1Nc2ccc(CCCl)cc2C1=Cc1ccc(C(=O)O)cc1 [10722/G05] | -6.0 | -9.0 |
| Cc1cc(C=C2C(=O)Nc3ccc(S(=O)(=O)Nc4ccc(C(F)(F)F)cc4)cc32)ccc1O [10723/E06] | 18.6 | 11.5 |
| COc1cccc(C=C2C(=O)Nc3ccc(Br)c(C)c32)c1O [10723/C03] | 42.9 | 5.9 |
| O=C1Nc2ccc(CCCl)cc2C1=Cc1ccc(O)c(O)c1O [10723/G02] | 13.8 | 90.8 |
| CC(C)(C)c1cc(C=C2C(=O)Nc3ccc(I)cc32)c(O)c(C(C)(C)C)c1 [10723/B11] | 22.8 | -26.0 |
| CNS(=O)(=O)c1ccc2c(c1)C(=Cc1ccccc1Br)C(=O)N2 [10723/D07] | 16.6 | 13.4 |
| O=C1Nc2ccc(I)cc2C1=Cc1cc(O)c(O)c(Br)c1 [10723/B04] | 40.1 | 5.1 |
| O=C1Nc2ccc(CCCl)cc2C1=Cc1ccc([N+](=O)[O-])s1 [10722/G04] | 11.7 | -13.3 |
| CC(=O)Oc1ccc(C=C2C(=O)Nc3ccc(CCCl)cc32)cc1OC(C)=O [10723/G05] | 2.0 | 1.3 |
| COc1ccc(C=C2C(=O)Nc3ccc(I)cc32)c(O)c1 [10723/B09] | 27.6 | -12.0 |
| O=C1Nc2ccc(S(=O)(=O)N3CCOCC3)cc2C1=Cc1cc(O)c(O)c(Br)c1 [10723/F04] | 21.4 | 17.5 |
| O=C1Nc2ccc(S(=O)(=O)Nc3ccc(C(F)(F)F)cc3)cc2C1=Cc1c[nH]c2ccccc12 [10717/E06] | – | -26.1 |
| O=C1Nc2ccc(S(=O)(=O)Nc3ccc(C(F)(F)F)cc3)cc2C1=Cc1ccc(F)cc1 [10717/E05] | – | 22.4 |
| CNS(=O)(=O)c1ccc2c(c1)C(=Cc1[nH]c(C)c(Br)c1Br)C(=O)N2 [10717/D11] | – | 59.1 |
| Cn1cccc1C=C1C(=O)Nc2ccc(S(=O)(=O)Nc3ccc(C(F)(F)F)cc3)cc21 [10717/E04] | – | -28.3 |
| Cc1ccc(C=C2C(=O)Nc3ccc(S(=O)(=O)Nc4ccc(C(F)(F)F)cc4)cc32)s1 [10717/E07] | – | -7.8 |
| O=C1Nc2ccc(S(=O)(=O)Nc3ccc(C(F)(F)F)cc3)cc2C1=Cc1cccs1 [10717/E03] | – | 11.7 |
